# Patent publication US11773076B2, “Crystalline forms of a somatostatin modulator” (Crinetics Pharmaceuticals, Inc., priority 2021, dated 2023)
# Entries after “also recorded” stand apart in the source; their conditions may differ.
# Tests used:
# SSTR2 = SSTR2 (Homo sapiens, UniProt P30874); assay: Selectivity for SSTR5 over SSTR2; format: cell-based
# SSTR5 = SSTR5 (Homo sapiens, UniProt P35346); assay: SSTR5 agonist potency; format: cell-based
# [1] = Dry and solvent drop milling, XRPD after milling; format: physicochemical
# Experimental: Dry and solvent drop milling was done using a small Wig-L-Bug ball mill with ¼″ stainless steel ball as milling media. About 25 mg of crystalline Pattern A of Compound 1 was weighed into a milling capsule and one volume of solvent (solvent drop) was added. The milling was carried out at 3,800 rpm in three steps of 30 s each. The solids were recovered after milling and analyzed by XRPD.
# [2] = Dynamic Vapor Sorption (DVS); format: physicochemical
# Experimental: Dynamic Vapor Sorption (DVS) was performed using a DVS Intrinsic 1. The sample (10-15 mg) was loaded into a sample pan, suspended from a microbalance and exposed to a humidified stream of nitrogen gas. The sample was held for a minimum of 5 min at each level and only progressed to the next humidity level if there was <0.002% change in weight between measurements (interval: 60 seconds) or 240 min had elapsed. The following program was used: • (1) Equilibration at 50% RH • (2) 50% to 2% (50%, 40%, 30%, 20%, 10% and 2%) • (3) 2% to 95% (2%, 10%, 20%, 30%, 40%, 50%, 60%, 70%, 80%, 90%, 95%) • (4) 95% to 2% (95%, 80%, 70%, 60%, 50%, 40%, 30%, 20%, 10%, 2%) • (5) 2% to 50% (2%, 10%, 20%, 30%, 40%, 50%)
# [3] = Thermodynamic stability: one-week slurry stability of crystalline Pattern A (XRPD); format: physicochemical
# Experimental: One-week slurry stability studies were performed on crystalline Pattern A in five solvents and solvent systems at room temperature (20-24° C.) and at 10° C. About 25 mg of Compound 1 was weighed into 2 mL vials and the solvent was added to each vial at room temperature with stirring. The solvents and solvent systems used in the experiments were: IPA:water (1:1 vol), THF:heptane (1:2 vol), ACN:heptane (1:2 vol), MIBK:heptane (1:2 vol), and IPAc.
# For the IPA:water (1:1 vol) samples, 10 vol. of IPA:water (1:1 vol) was added, whereas 7 vol. were initially added for the other solvent systems. One set of vials was left to stir at room temperature and the other set was transferred to a cold stir plate at 10° C. After 5 days, samples that remained in solutions were seeded with Pattern A (0.5-1 mg) and left to stir for one week.
# [4] = Thermal stability of crystalline Pattern A (DSC cycling, then XRPD); format: physicochemical
# Experimental: Two samples of Crystalline Pattern A were prepared and cycled in the DSC and then analyzed by XRPD.
# The first sample of Pattern A (9.4 mg) was heated from 30° C. to 150° C. and then cooled back to 30° C.
# The second sample of Pattern A (14.4 mg) was heated from 30° C. to 118° C. and then cooled back to 30° C. The sample recovered after the DSC experiment appeared as a light-amber pellet that was easily pressed into a powder on the XRPD plate.
# [5] = Stability of solid state forms on humidity exposure (static storage, XRPD re-analysis); format: physicochemical; conditions: 40° C./75% RH for 7 days
# Experimental: Samples were assessed for stability under static storage conditions of 40° C./75% RH for 7 days. The samples were then re-analyzed by XRPD.
# [6] = Stability of crystalline patterns on drying (XRPD); format: physicochemical; conditions: for XRPD after drying on the benchtop: 2 days
# Experimental: Samples of amorphous Compound 1 (either 30 mg/mL or 60 mg/mL) were dissolved in DCM and were allowed to evaporate either at room temperature or 45° C. After stirring for about 40 min, the resulting slurries were filtered and analyzed by XRPD. Pattern B was obtained for the wet cakes of recovered solids. Pattern B changed to C after drying under static vacuum at 50° C. overnight.
# In a separate experiment, about 71 mg of amorphous Compound 1 was weighed into a 4 mL vial and 10 vol. (710 μL) of DCM was added at room temperature. After stirring for 5 min, a thin slurry formed. XRPD analysis of a sample taken from the slurry after 1 h confirmed Pattern B. The vial was then transferred to a fridge at 5° C. for ˜3 h and then to a freezer at −20° C. overnight. Small amount of solid settled to the bottom of the vial after cooling at −20° C., the yield was very low, about 6% w/w. XRPD confirmed Pattern B. Pattern B was left to dry on the benchtop at room temperature for 2 days. XRPD analysis on the sample after 2 days confirmed that Pattern B was stable. Thermal analysis on a small sample (0.7 mg) of Pattern B was performed by DSC.
# A sample of 48.9 mg of amorphous Compound 1 and 3 vol. (˜150 μL) of MIBK:heptane was prepared at 45° C. A small amount of gummy solid formed after addition of the solvent system. The vial was vortexed and sonicated few times to break the gum and a thin slurry was obtained after 5 min of stirring. The sample was left to stir at 45° C. for about 5 h and then transferred to a stir plate at room temperature. After stirring overnight at room temperature, the sample was filtered and the solid was collected for XRPD analysis. The yield was low, ˜7% w/w.
# Thermal analysis on a small sample of Pattern D was performed by DSC.
# Sequence of SSTR2 (P30874 whole entry): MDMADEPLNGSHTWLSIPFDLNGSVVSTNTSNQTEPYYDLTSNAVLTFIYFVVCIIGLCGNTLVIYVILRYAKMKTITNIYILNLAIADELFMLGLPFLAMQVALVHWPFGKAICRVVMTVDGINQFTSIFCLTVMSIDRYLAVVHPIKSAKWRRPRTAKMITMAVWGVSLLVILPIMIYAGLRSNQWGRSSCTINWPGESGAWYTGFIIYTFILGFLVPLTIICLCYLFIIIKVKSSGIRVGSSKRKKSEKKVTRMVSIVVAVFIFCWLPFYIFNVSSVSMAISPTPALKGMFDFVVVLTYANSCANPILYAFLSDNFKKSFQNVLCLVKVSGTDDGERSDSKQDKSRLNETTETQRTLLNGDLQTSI
# Sequence of SSTR5 (P35346 whole entry): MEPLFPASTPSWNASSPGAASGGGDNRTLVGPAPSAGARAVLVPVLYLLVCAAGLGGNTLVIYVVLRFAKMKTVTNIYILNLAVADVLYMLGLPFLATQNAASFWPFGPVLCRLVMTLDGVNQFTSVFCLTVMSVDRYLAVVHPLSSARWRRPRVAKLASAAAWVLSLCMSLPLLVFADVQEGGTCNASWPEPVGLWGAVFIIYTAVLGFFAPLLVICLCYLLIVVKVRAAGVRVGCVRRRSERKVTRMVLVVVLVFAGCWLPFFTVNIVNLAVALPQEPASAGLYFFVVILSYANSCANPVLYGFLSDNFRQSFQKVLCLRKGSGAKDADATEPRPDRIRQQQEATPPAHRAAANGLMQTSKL
smiles,measurement,setting,value
"C[C@H](NC(=O)c1cnc(C#N)c(-c2cc(F)cc(F)c2)c1N1CC[C@H](N)C1)C(F)(F)F [Compound 1, 4-[(3S)-3-aminopyrrolidin-1-yl]-6-cyano-5-(3,5-difluorophenyl)-N-[(2S)-1,1,1-trifluoropropan-2-yl]pyridine-3-carboxamide]",selectivity for SSTR5 over SSTR2,SSTR2,> 500 fold
same,EC50,SSTR5,< 1 nM
"C[C@H](NC(=O)c1cnc(C#N)c(-c2cc(F)cc(F)c2)c1N1CC[C@H](N)C1)C(F)(F)F [Pattern A, 4-[(3S)-3-aminopyrrolidin-1-yl]-6-cyano-5-(3,5-difluorophenyl)-N-[(2S)-1,1,1-trifluoropropan-2-yl]pyridine-3-carboxamide]",crystallinity (XRPD) after dry milling,"[1]; dry milling, 3,800 rpm, three steps of 30 s",lost after dry milling resulting in amorphous material
same,crystallinity (XRPD) after solvent milling,"[1]; solvent drop milling in IPAc, water, and MIBK",remained stable
same,total mass change between 2 and 95% RH,"[2]; DVS, 2 to 95% RH",0.7%
same,mass gain from 20 to 75% RH,"[2]; DVS, 20 to 75% RH",0.37%
same,mass loss from 50 to 2% RH,"[2]; DVS, 50 to 2% RH",0.2%
same,XRPD pattern after DVS analysis,"[2]; sample measured by DVS, 2-95% RH",unchanged after DVS analysis
same,XRPD pattern after one-week slurry,[3]; MIBK:heptane (1:2 vol) at 10° C.,Pattern B
same,XRPD pattern after one-week slurry,[3]; MIBK:heptane (1:2 vol) at room temperature,"Pattern A+trace of a new pattern, Pattern D"
same,XRPD pattern after one-week slurry,"[3]; remaining six analysable samples: IPA:water (1:1), THF:heptane (1:2), IPAc, room temperature and 10° C.",Pattern A
same,XRPD after DSC thermal cycling,[4]; heated from 30° C. to 118° C. and cooled back to 30° C.,stable after the DSC treatment
same,XRPD after DSC thermal cycling,[4]; heated from 30° C. to 150° C. and cooled back to 30° C.,amorphous pattern
same,XRPD after static storage,[5],no change in the XRPD
"C[C@H](NC(=O)c1cnc(C#N)c(-c2cc(F)cc(F)c2)c1N1CC[C@H](N)C1)C(F)(F)F [Pattern B, 4-[(3S)-3-aminopyrrolidin-1-yl]-6-cyano-5-(3,5-difluorophenyl)-N-[(2S)-1,1,1-trifluoropropan-2-yl]pyridine-3-carboxamide]",XRPD after drying on the benchtop,[6]; room temperature,stable
same,XRPD after drying under vacuum at 50° C.,"[6]; vacuum, 50° C.",changed to C; also recorded: converted to Pattern C
"C[C@H](NC(=O)c1cnc(C#N)c(-c2cc(F)cc(F)c2)c1N1CC[C@H](N)C1)C(F)(F)F [Pattern D, 4-[(3S)-3-aminopyrrolidin-1-yl]-6-cyano-5-(3,5-difluorophenyl)-N-[(2S)-1,1,1-trifluoropropan-2-yl]pyridine-3-carboxamide]",XRPD after drying under active vacuum at room temperature,"[6]; overnight, active vacuum, room temperature",converted to C
same,XRPD after drying on the benchtop,[6]; room temperature,remained stable
